How the values were obtained:
[1] = test system: hepatocellular HA-22T cancer cells; experiment: In vitro cytotoxicity MTS assay, hepatocellular HA-22T; type: cell-based, human; settings: 72 hours
Protocol: (§1) A panel of human cancer cells, gastric NUGC3 and HR, nasopharyngeal HONE1, hepatocellular HEP G2 and HA-22T, colorectal DLD1, lung A549, prostate PC3, breast MCF7 and its adriamycin-resistant MCF7/ADR subline, uterus MES-SA and its adriamycin-resistant MES-SA/Dx5 subline, is purchased from Food Industry Research and Development Institute, Hsinchu, Taiwan R.O.C. or American Type Culture Collection, Manassas, Va. U.S.A., are used in in vitro cytotoxicity assays. The human cells are seeded at a cell density of 3000 or 4500 cells/100 μl/well in 96-well flat-bottom plates and incubated for 24 hours at 37° C. in a 5% CO2 incubator. The testing compounds are dissolved in dimethyl sulfoxide (DMSO) and further diluted into the culture medium for treatments of human cancer cells in vitro. The drug-containing media has a final DMSO concentration of ≦0.3%. The compounds of this invention are prepared in culture media for testing at a range of concentrations from 10, 1, 0.1, 0.01 to 0.001 μM. Each compound solution is (200 μl/well in duplicate) in the cell plates and is treated for 72 hours at 37° C., 5% CO2 in an incubator. Actinomycin D at 5 μM and 0.3% DMSO are used as the positive and vehicle controls, respectively. A colorimetric assay using 3-(4,5-dimethylthiazol-2-yl)-5-(3-carboxymethoxyphenyl)-2-(4-sulfophenyl)-2H-tetrazolium (MTS) and phenazine methosulfate (PMS) is used to determine the potency of the compounds. This assay measures cell viability based on the cellular activity in conversion of a tetrazolium salt into a colored soluble formazan product. The optical density (OD) values are measured at 490 nm with a 1420 multilabel counter VICTOR® from Wallac, Turku, Finland. All of the measured values are subtracted with that of the blank control wells without cells before further calculations. The efficacy data are expressed as a percentage normalized to the vehicle controls as calculated in the following formulae. Inhibitory potency (% of vehicle control)=[(OD490compound−OD490blank)/(OD490vehicle−OD490blank)]×100%. The concentration (IC50) of a test compound that inhibits 50% of the cellular activity is determined.

[2] = test system: nasopharyngeal HONE1 cancer cells; experiment: In vitro cytotoxicity MTS assay, nasopharyngeal HONE1; type: cell-based, human; settings: 72 hours
Protocol: as §1

gastric HR cancer cells = experiment: In vitro cytotoxicity MTS assay, gastric HR; type: cell-based, human; settings: 72 hours
Protocol: as §1

[3] = test system: gastric NUGC3 cancer cells; experiment: In vitro cytotoxicity MTS assay, gastric NUGC3; type: cell-based, human; settings: 72 hours
Protocol: as §1

lung A549 cancer cells = experiment: In vitro cytotoxicity MTS assay, lung A549; type: cell-based, human; settings: 72 hours
Protocol: as §1

breast MCF7 cancer cells = experiment: In vitro cytotoxicity MTS assay, breast MCF7; type: cell-based, human; settings: 72 hours
Protocol: as §1

[4] = test system: adriamycin-resistant MCF7/ADR subline; experiment: In vitro cytotoxicity MTS assay, adriamycin-resistant MCF7/ADR; type: cell-based, human; settings: 72 hours
Protocol: as §1

[5] = test system: uterus MES-SA cancer cells; experiment: In vitro cytotoxicity MTS assay, uterus MES-SA; type: cell-based, human; settings: 72 hours
Protocol: as §1

[6] = test system: rat aorta endothelial cells; experiment: Rat aorta tube formation assay (angiogenesis inhibition); type: cell-based, Spraque-Dawley rats; set-up: key: Noninhibitors are indicated by the symbol (−), meaning that the extent of endothelial cell growth is essentially at the same level as that of the control; The most potent inhibitors receive a score of (+++++), indicating essentially no measurable endothelial cell growth; settings: 5 days
Protocol: The procedures are modified from previous reports (Burbridge and West 2001; Bauer et al. 2000; Nicosai and Ottinetti 1990a) and described as follows. Male Spraque-Dawley rats of 6-8 weeks old are purchased from the National Laboratory Animal Breeding and Research Center (Taipei, Taiwan). The animals are anesthetized with urethane (2 g/kg, intraperitoneal) and the thoracic aortas are quickly harvested in a laminar flow hood. The aortas are rinsed with ice-cold normal saline with 10 μg/ml gentamicin and the attached fibroadipose tissues are removed using micro-dissection scissors. The aortas are cross-sectioned into rings of 1 mm in thickness. A mixture of Matrigel®, purchased from BD Biosciences, solution and the EBM-II medium, purchased from BioWhittaker Inc., (1:1) with 2% FBS, 0.25 mg/ml, amphotericin B and 10 μg/ml gentamicin is prepared and added at 100 μl to each well of a 48-well plate. The mixture is allowed to gel at 37° C. Aorta rings are then placed onto the gelled matrix and embedded in an additional 150 μl per well of the mixture solution and allowed to gel at 37° C. The aorta rings are then covered with 125 μl of the EGM-II medium and incubated overnight in humidified incubator with 5% CO2/95% air at 37° C. After removal of the EGM-II from the established aorta cultures, the compound-containing media are applied at 300 μl per well to the cultures and then incubated in 5% CO2/95% air at 37° C. for 5 days. The cultures are then subject to the 3-[4,5-dimethylthiazol-2-yl]-2,5 diphenyl-2H-tetrazolium bromide (MTT) or 3-(4,5-dimethylthiazol-2-yl)-5-(3-carbomethoxyphenyl)-2H-tetrazolium (MTS) assay and OD490 nm values measured. The testing compounds are dissolved in dimethyl sulfoxide (DMSO) and prepared in EBM-II media with at a final concentration of DMSO less than 0.1%.
The capillary-like, tube structure of the outgrown rat aorta endothelial cells is easily visualized by MTT staining. The medium on top of the matrix is removed from the established aorta ring cultures. MTT solution of 5 mg/ml in saline is added to the cultures at 100 μl/well and the cultures are incubated in a CO2 incubator at 37° C. for 24 hr. The stained cultures are then examined under a microscope DMIRB from Leica and photos taken with a digital camera.
Inhibition activity is also assessed in the following manner. The reductive reaction of MTS initiated by the viable cellular mitochondrial activity is used as a basis for the measurement of cell viability (Cory et al. 1991; Gieni et al. 1995). To the rat aorta ring cultures 300 μl of a solution containing 100 μg MTS and 1 μg, phenazine methosulfate is added per well and incubated in 5% CO2/95% air at 37° C. for 24 hr. During the incubation, MTS is converted to formazan product. At the end of incubation, the solution overlaying the gel is well-mixed and 100 μl aliquots are transferred into a 96-well plate for measurement of OD490 nm with a spectrophotometer VICTOR™-II from Wallac Oy.
The compounds listed in Table 3 are screened for angiogenesis inhibition. The control compound, ASTA, is D-24851, N-[pyridin-4-yl]-[1-(4-chlorobenzyl)-indol-3-yl]-glyoxylic acid amide. Noninhibitors are indicated by the symbol (−), meaning that the extent of endothelial cell growth is essentially at the same level as that of the control.

Cc1cc(NC(=O)C(=O)c2cn(Cc3ccc(C#N)cc3)c3ccccc23)sn1 [Compound 25]
IC50 [1]: 0.692 µM | IC50 [2]: 0.207 µM | IC50 (gastric HR cancer cells): 0.34 µM | IC50 [3]: 0.514 µM | IC50 (lung A549 cancer cells): 0.545 µM | IC50 (breast MCF7 cancer cells): 0.469 µM | IC50 [4]: 5.24 µM | IC50 [5]: 0.373 µM | Inhibition Score ([6]; final conc. 0.3 μg/ml): +++++

Cc1cc(Cn2cc(C(=O)C(=O)Nc3cc(C)ns3)c3ccccc32)on1 [Compound 56]
IC50 [1]: 0.123 µM | IC50 [2]: 0.004 µM | IC50 (gastric HR cancer cells): 0.008 µM | IC50 [3]: 0.012 µM | IC50 (lung A549 cancer cells): 0.557 µM | IC50 (breast MCF7 cancer cells): 0.036 µM | IC50 [4]: 5 µM | IC50 [5]: 0.293 µM | Inhibition Score ([6]; final conc. 0.3 μg/ml): +++++ | Inhibition Score ([6]; final conc. 1 μg/ml): −
